Results: US20240139220A1, “TREATMENT OF HPV INFECTION” (priority 2022, published 2024)

Legend:
[1] = Ex vivo permeation and penetration across porcine vaginal tissue (Franz diffusion cells, IVPT); format: in vitro ADME
From the text: FIG. 116 is an in vitro tissue permeation test in vaginal tissue comparing Compound II to ABI-1968. […] Bars B and C show the tissue penetration of a 0.1% Compound II gel in […]. […] This may be a contributing factor to the performance of ABI-1968 in clinical studies. […] This is described in Example 41.
Freshly harvested porcine vaginal tissue was procured from local slaughterhouse in an ice box. The vaginal tissue was cut open to expose the mucosal surface and tissue was cleaned by gentle flow of PBS pH 7.4. The porcine vaginal tissue was cut into circular portions (approximately 2 cm^2) with help of a […] punch.
The circular portion of tissue was sandwiched between two chambers of a Franz diffusion cell with an active diffusion area of 1 cm^2, and the mucosal layer was exposed to the donor chambers. The resistance across porcine vaginal tissue was measured using a wave form generator to ensure the integrity of the tissue segment used for the permeation study. Porcine vaginal tissue with resistance of ≥3 KΩ.cm^2 was used for study. The receiver chamber was filled with 8 ml of 5% solutol PBS 7.4 pH, which was stirred at 600 rpm with a 3 mm magnetic stir bar and the temperature was maintained at 37° C. with a circulating water bath.
The ˜200 mg of gel was filled into tared 1 mL syringe and gel was dispensed to donor chamber. The gel was spread on to mucosal surface with pre weighed applicator. After loading and spreading of the gel onto surface of mucosal surface, the weight of 1 mL syringe and applicator was noted to determine the exact amount of gel loaded into donor chamber.
Time course (2 h, 4 h and 8 h) porcine vaginal permeation studies were performed. After loading gel, 500 μL samples were withdrawn from the receiver compartment at different time intervals and each time an equal volume of fresh receiver media was used to replace withdrawn samples. The sample withdrawn at each time interval were stored immediately in −20° C. until analysis. After 2, 4 and 8 h, the formulation was removed from the donor chamber with help of syringe and cleaned with cotton swab. The tissue was removed and washed gently with wash solution (50% methanol in water) 5 times and alternatively cleaning with cotton swab.
An 8 mm punch of active diffusion area of washed porcine vaginal tissue was removed, weighed and transferred into a tube. This tube was immediately placed into dry ice for ˜15 min. After specified time, tissue was removed and placed in precooled dish. The tissue was minced into smaller pieces on a dish with a precooled surgical blade. The minced tissue was transferred to sample tubes and dish was rinsed with 1 ml of 5% solutol in PBS 7.4 pH and transferred to same tissue sample tube. These tubes were stored in −70° C. until analysis.
The samples stored at −20° C. was removed and thawed at room temperature for 30 min. The drug from receptor fluid was centrifuged at 13000 rpm for 5 min and to 200 μL of supernatant equal volume of extraction solvent was added. These samples were centrifuged at 13000 rpm for 5 min and supernatant was transferred into vials for analysis.
The minced tissue samples stored at −70° C. were removed and thawed at room temperature for ˜90 min. The samples were kept for shaking at room temperature for 4 h in BioShaker. After 4 h, samples were centrifuged at 13000 rpm for 5 min. To 100 μL of supernatant, 400 μL of extraction solvent was added and vortexed for 2 min. […]

[2] = Bulk stability, accelerated storage for one week (HPLC, XRPD); format: physicochemical; conditions: for Bulk (XRPD) / Color / Purity, Bulk (HPLC): 1 week
Description: Bulk stability: Accelerated stability experiments were conducted at 25° C./92% RH and 40° C./75% RH in an open container, 60° C. in a tight container for one week.
Samples were characterized by XRPD and HPLC and inspected for color change.
Accelerated stability experiments were conducted at 25° C./92% RH in an open container, at 40° C./75% RH in an open container, and at 60° C. in a tight container for one week.

[3] = Solubility in buffers, water and simulated vaginal fluid at 37° C.; format: physicochemical
Description: About 4 mg of Compound I Pattern 1 was added into 2 mL of buffer solution.
(§1) Solubility was tested in five media, pH 3.0 citrate buffer, pH 4.5 acetate buffer, pH 6.8 phosphate buffer, water, simulated vaginal fluid (pH 4.2) at 37° C. for 0.5 h and 2 h.
The salt amount used is equivalent to 10 mg anhydrous free base. […] The obtained clear solutions were analyzed by pH meter for pH, and solubility was determined by observation.
as §1

[4] = Hygroscicity by Dynamic Vapor Sorption (DVS) at 25° C.; format: physicochemical; conditions: for XRPD after DVS test: 25° C.
Description: Hygroscopicity was investigated by DVS at 25° C., using the following method: […]

[5] = Polymorph screening by equilibration in solvents at 25° C. (XRPD); format: physicochemical
[6] = BS1: solid state, 25° C./92% RH, open container
[7] = BS2: solid state, 40° C./75% RH, open container
[8] = BS3: solid state, 60° C., tight container
[9] = ES1: pH 3.0, 100 mM citrate buffer
[10] = ES2: pH 4.5, 50 mM acetate buffer
[11] = ES3: pH 6.8, 50 mM phosphate buffer
[12] = ES5: Simulated vaginal fluid (pH adjusted by 0.1N NaOH)

## CCCCCCCCCCCCCCCCCCOCCOP(=O)(O)COCCn1cnc2c(=O)[nH]c(N)nc21 [ABI-1968]
[1]; 3% dose (FIG. 116)
  Concentration in vaginal tissue: < 15 ng/mL
[1]; porcine vaginal tissue, FIG. 116, Compound II 0.1% gel, ABI-1968 1% and 3% formulations
  Tissue penetration: substantially smaller degree
[1]; up to a 3% dose (Bar F and G in FIG. 116)
  Tissue concentration: < 15 ng/mg

## CCOC(=O)C(C)NP(=O)(COCCn1cnc2c(OC)nc(N)nc21)OCc1ccccc1.O=C(O)C=CC(=O)O (stereo not shown) [Compound III Pattern 2]
[2]; 25° C./92% RH open, 40° C./75% RH open, 60° C. tight container, one week
  Stability after exposure to the three conditions: good physical stability
[2]; 40° C./75% RH in an open container, one week
  Degradation product increase: 1.6%
[2]; 60° C. in a tight container, one week
  Degradation product increase: 1.5%
[2]; [6]
  Bulk (XRPD): No form change
  Color: No change
  Purity, Bulk (HPLC): 98.7%
[2]; [7]
  Bulk (XRPD): No form change (One
  Color: No change
  Purity, Bulk (HPLC): 97.2%
[2]; [8]
  Bulk (XRPD): No form change (One
  Color: No change
  Purity, Bulk (HPLC): 97.3%
[2]; before storage
  Initial HPLC purity: 98.8%
[3]; [9]
  Solubility 0.5 hours: >2 mg/mL
  Solubility 2 hours: > 2 mg/mL
  pH of solution, 2 hours: 2.83
[3]; [10]
  Solubility 0.5 hours: >2 mg/mL
  Solubility 2 hours: > 2 mg/mL
  pH of solution, 2 hours: 4.12
[3]; [11]
  Solubility 0.5 hours: >2 mg/mL
  Solubility 2 hours: > 2 mg/mL
  pH of solution, 2 hours: 6.44
[3]; ES4: Water
  Solubility 0.5 hours: >2 mg/mL
  Solubility 2 hours: > 2 mg/mL
  pH of solution, 2 hours: 2.78
[3]; [12]
  Solubility 0.5 hours: >2 mg/mL
  Solubility 2 hours: > 2 mg/mL
  pH of solution, 2 hours: 5.37
[4]; 0% RH, DVS 25° C.
  Desorp. (%) Cycle 1: 0.00%
  Desorp. (%) Cycle 2: 0.00%
  Sorp. (%) Cycle 1: 0.00%
  Sorp. (%) Cycle 2: 0.00%
[4]; 10% RH, DVS 25° C.
  Desorp. (%) Cycle 1: 0.07%
  Desorp. (%) Cycle 2: 0.07%
  Sorp. (%) Cycle 1: 0.07%
  Sorp. (%) Cycle 2: 0.07%
[4]; 20% RH, DVS 25° C.
  Desorp. (%) Cycle 1: 0.15%
  Desorp. (%) Cycle 2: 0.15%
  Sorp. (%) Cycle 1: 0.14%
  Sorp. (%) Cycle 2: 0.14%
[4]; 30% RH, DVS 25° C.
  Desorp. (%) Cycle 1: 0.23%
  Desorp. (%) Cycle 2: 0.23%
  Sorp. (%) Cycle 1: 0.22%
  Sorp. (%) Cycle 2: 0.22%
[4]; 40% RH, DVS 25° C.
  Desorp. (%) Cycle 1: 0.30%
  Desorp. (%) Cycle 2: 0.32%
  Sorp. (%) Cycle 1: 0.29%
  Sorp. (%) Cycle 2: 0.30%
[4]; 40-0-95-0-40% RH
  XRPD after DVS test: No form change
[4]; 50% RH, DVS 25° C.
  Desorp. (%) Cycle 2: 0.41%
  Sorp. (%) Cycle 1: 0.39%
[4]; 60% RH, DVS 25° C.
  Desorp. (%) Cycle 2: 0.52%
  Sorp. (%) Cycle 1: 0.47%
[4]; 70% RH, DVS 25° C.
  Desorp. (%) Cycle 2: 0.67%
  Sorp. (%) Cycle 1: 0.59%
[4]; 80% RH, DVS 25° C.
  Desorp. (%) Cycle 2: 0.81%
  Sorp. (%) Cycle 1: 0.71%
[4]; 90% RH, DVS 25° C.
  Desorp. (%) Cycle 2: 0.97%
  Sorp. (%) Cycle 1: 0.92%
[4]; 95% RH, DVS 25° C.
  Desorp. (%) Cycle 2: 1.01%
  Sorp. (%) Cycle 1: 1.01%
[4]; DVS 25° C.
  Hygroscopicity: slightly hygroscopic
[4]; cycle 40-0-95-0-40% RH
  XRPD after DVS test: No form change
[4]; up to 95% RH, DVS 25° C.
  Water uptake: about 1.0%
[5]; PS1: IPA
  Crystal modification after 1 week equilibration (XRPD): Compound V Pattern 2
[5]; PS2: Heptanes
  Crystal modification after 1 week equilibration (XRPD): Compound III Pattern 2
[5]; PS3: Water
  Crystal modification after 1 week equilibration (XRPD): Compound III Pattern 3
[5]; PS4: ACN
  Crystal modification after 1 week equilibration (XRPD): Compound III Pattern 4
[5]; PS5: MEK
  Crystal modification after 1 week equilibration (XRPD): Compound III Pattern 5
[5]; PS7: IPA/heptanes (3/10, v/v)
  Crystal modification after 1 week equilibration (XRPD): Compound III Pattern 2
[5]; PS8: water/ACN (2.9/97.1, v/v)
  Crystal modification after 1 week equilibration (XRPD): Compound III Pattern 4
[5]; PS9: IPA/MTBE (1/3, v/v)
  Crystal modification after 1 week equilibration (XRPD): Compound III Pattern 6
[5]; PS10: EA/toluene (1/3, v/v)
  Crystal modification after 1 week equilibration (XRPD): Compound III Pattern 2
